Reference: patent US10827758B2, “Relating to water treatment” (BWA WATER ADDITIVES UK LIMITED, priority 2014, dated 2020)

Tests used:
Desulfovibrio vulgaris = experiment: Log 10 Reduction of anaerobic bacterium in dosed bacterial suspension (serial dilution into API RP 38 media vials); format: cell-based; details: TDS 30,000 mg l^-1, ppm dose per Example, 6 = complete kill
Method: (§1) A suspension of Desulfovibrio vulgaris plus Enterobacter aerogenes bacteria containing from 1×10^6 to 1×10^8 cells/mL was prepared in sterile pH 8 phosphate buffer containing varying levels of sodium chloride to give the desired total dissolved solids (TDS) concentration. Aliquots of this suspension were dosed with the indicated concentrations of the phosphonium compound (a) and stabilised halogen containing composition (b) with the concentrations being measured as ppm by weight of the stated composition in the dosed suspension. The mixtures were allowed to stand at room temperature. At the designated contact times, each mixture was sampled to determine the total number of viable cells of both Desulfovibrio vulgaris and Enterobacter aerogenes by serial 10-fold dilution into API RP 38 media vials and anaerobic acid producing media vials, respectively. The vials were incubated at 37° C. for 72 hours. Results were recorded as cells per millilitre.
(§2) Aqueous media inoculated with anaerobe and aerobe culture and having a TDS of 30,000 mg l^−1 was treated with treatment agents comprising: (i) stabilised halogen containing composition; (ii) tri n-butyl n-tetradecyl phosphonium chloride (TTPC) or (iii) a combination of stabilised halogen containing composition and TTPC.
(§3) The efficacy of the treatment agents was evaluated by measuring the Log 10 Reduction of the anaerobic bacterium Desulfovibrio vulgaris and the facultative anaerobeic bacterium Enterobacter aerogenes after contact times of 1 hour, 4 hours and 24 hours as detailed in Table 1. For TTPC the stated ppm value relates to the amount of TTPC added (active). For the stabilised bromine composition the stated ppm relates to the amount of Bromax 7.1 added (product)
(§4) A Log 10 reduction of 6 represents a complete kill for anaerobes and a Log 10 reduction of 8 represents a complete kill for facultative anaerobes.

Enterobacter aerogenes = experiment: Log 10 Reduction of facultative anaerobic bacterium in dosed bacterial suspension (serial dilution into anaerobic acid producing media vials); format: cell-based; details: TDS 30,000 mg l^-1, ppm dose per Example, 8 = complete kill
Method: as §1, §2, §3, §4

Row | SMILES | Log10 Reduction Anaerobes (Desulfovibrio vulgaris; contact time 1 hour) | Log10 Reduction Facultative Anaerobes (Enterobacter aerogenes; contact time 1 hour) | Log10 Reduction Anaerobes (Desulfovibrio vulgaris; contact time 24 hours) | Log10 Reduction Facultative Anaerobes (Enterobacter aerogenes; contact time 24 hours) | also measured
1 | CCCCCCCCCCCCCC[P+](CCCC)(CCCC)CCCC.[Cl-] [Example 1, tri n-butyl n-tetradecyl phosphonium chloride] | 3 | 1 | – | – | –
2 | CCCCCCCCCCCCCC[P+](CCCC)(CCCC)CCCC.[Cl-] [Example 2, tri n-butyl n-tetradecyl phosphonium chloride] | 6 | 4 | – | – | –
3 | CCCCCCCCCCCCCC[P+](CCCC)(CCCC)CCCC.[Cl-] [Example 9, tri n-butyl n-tetradecyl phosphonium chloride] | – | – | – | – | Log10 Reduction Anaerobes (Desulfovibrio vulgaris; contact time 4 hours): 6; Log10 Reduction Facultative Anaerobes (Enterobacter aerogenes; contact time 4 hours): 5
4 | CCCCCCCCCCCCCC[P+](CCCC)(CCCC)CCCC.[Cl-] [Example 17, tri n-butyl n-tetradecyl phosphonium chloride] | – | – | 6 | 5 | –
5 | CCCCCCCCCCCCCC[P+](CCCC)(CCCC)CCCC.[Cl-] [Example 18, tri n-butyl n-tetradecyl phosphonium chloride] | – | – | 6 | 8 | –
